# Assay results reported in US9572862B2, “Methods for promoting lipolysis and oxidation in liver and adipose tissue using catestatin” (The Regents of the University of California, priority 2012, dated 2017).
# “Also recorded” adds a separate entry of the source. No end group written: not given here.
# Assays:
# phospholipase C (PLC) = settings: 3T3-L1 adipocytes
# Experimental: FIG. 5. Regulation of adrenergic signaling by CST as measured by cAMP production, phospholipase C activity, and lipolytic glycerol release. (A) Effects of CST (100 nM, 10 min) on cAMP production in PC-12 and 3T3-L1 cells pretreated with saline or isoproterenol (ISO) (10 μM) for 10 min. (B) Effects of CST on phospholipase C activity in 3T3-L1 adipocytes pretreated with phenylephrine or epinephrine (10 μM for 10 min). (C) Effects of CST on glycerol release from adipocytes pretreated with ISO, phenylephrine (PEP), and phentolamine (PTA) (10 μM for 10 min).
# [1] = tested on: STAT3 and AMPK phosphorylation; assay: Stat3 and AMPK signaling in adipose explants from Ob/Ob mice; format: cell-based; settings: CST in vivo, leptin 1 μM ex vivo 30 min
# Experimental: FIG. 9. Stat3 and AMPK signaling in the adipose tissue explants from DIO and Ob/Ob mice treated with saline, CST (in vivo) and leptin (ex vivo). Explants from DIO mice (A&B) and Ob/Ob mice (C&D) were incubated with saline or leptin (1 μM) for 30 min, homogenized and immunoblotted for phospho- and total Stat3 (A&C) as well as phospho- and total AMPK signals (B&D). Results are presented as the ratio of signal strength of phospho-over total.
# (§1) Adipose tissue explants were prepared as described (42). Epididymal fat pads from 12 hr fasted WT, Chga-KO, DIO and Ob/Ob mice with or without CST treatment were collected in Kreb-Ringer-phosphate (KRP) buffer containing 10 mM Hepes and 0.5% BSA. Tissues were minced to 1-2 mm size and treated with 100 nM CST, 1 μM leptin, or saline for 30 min (for signaling analysis) or 3 hr (for lipolysis and β-oxidation assays). Explants were also treated acutely with CST, leptin, a combination, or saline. At the end, incubation media were saved for analysis of glycerol and fatty acid release. Explants were washed prior to homogenization for immunoblotting and analysis of fatty acid oxidation.
# (§2) Adipose tissue explants after treatments ex vivo and tissues from mice treated in vivo were homogenized in a buffer containing phosphatase and protease inhibitors (20 mM Tris/HCl (pH 7.5), 250 mM sucrose, 2 mM EDTA, 2 mM EGTA, 2 mM Na3VO4, 10 mM NaF, 2 mM Na4P2O7, 1 mM phenylmethylsulfonyl fluoride, 20 μg/ml leupeptin, 10 μg/ml aprotinin, and 1 μM LR-microcystin) as described (38,44). Homogenates were subjected to SDS-PAGE and immunoblotted. Primary antibodies for AMPK and Stat3 were from Cell Signaling Technology (Beverly, Mass.). The chemiluminescence kit was from Pierce (Rockford, Ill.).
# primary adipocytes = assay: Lipolytic glycerol release from primary adipocytes; format: cell-based, mice
# Experimental: Mice were fasted for 12 hr prior to blood draw. Triglycerides (TG) and non-esterified fatty acids (NEFA) were assayed using kits from Wako Diagnostics (Richmond, Va.). Glycerol was assayed using a kit from Sigma (St Louis, Mo.). Media from the explant cultures and mouse serum were analysed for glycerol and NEFA as a measure of lipolysis. ELISA kits were used to determine plasma levels of leptin, adiponectin (Millipore, Billerica, Mass.) and CST (Bachem, Torrance, Calif.). For CST assay, plasma samples and reference standards were passed through mini C18 columns and the flow-through fractions were assayed. The same kits were used for measurements in culture media.
# Primary adipocytes were isolated from epididymal fat pads essentially as described (43). Adipose tissues from WT and Chga-KO mice were minced in Krebs-Ringer bicarbonate-Hepes (KRBH) buffer, pH 7.4, containing 10 mM bicarbonate, 30 mM Hepes, 200 nM adenosine, 2.5 mM glucose and 1% fatty-acid-free BSA, and digested for 30-40 min with Type I collagenase (10 mg/g tissue; Invitrogen, Carlsbad, Calif.) with gentle swirling in a 37° C. incubator. The digestion mixture was then filtered through a nylon strainer and centrifuged at 400×g for 1 min. The oily layer (released from broken cells) above floating fat cells was skimmed off, and fat cells were recovered from the top and washed three times with warm KRBH.
# [2] = tested on: AMPK and Stat3 phosphorylation; assay: AMPK and Stat3 signaling in adipose tissue explants from Chga-KO mice; format: cell-based
# Experimental: FIG. 6. Regulation of AMPK and Stat3 signaling by CST in adipose tissue explants. Explants from Chga-KO mice were treated with saline or CST (100 nM for 30 min) and immunoblotted for pAMPK and AMPK (A). Adipose explants from WT and Chga-KO mice were immunoblotted for pAMPK and AMPK after treatment with saline or leptin (1 μM) for 30 min (B). pAMPK and AMPK (C) and pStat3 and Stat3 (D) signaling in adipose explants from WT and Chga-KO mice after treatment for 30 min with saline, CST (100 nM), leptin (1 μM) or leptin plus CST.
# as §1, §2
# [3] = Plasma CST level (ELISA) after CST administration; format: in vivo; settings: WT mice on NCD, CST 5 μg/g BW i.p./day for 12 days
# Experimental: FIG. 1. Plasma parameters of wild-type (WT) and Chga-KO mice treated with saline or CST. (A) Plasma CST from saline or CST (5 μg/g BW, i.p./day) treated WT mice (28 week old) on normal chow (NCD) and high fat diet (60% fat for 16 weeks) as well as from Chga-KO mice (28 week old) on NCD. Body weights (B) and epididymal fat pad size normalized to body weight (C) in 28 week old WT and Chga-KO mice treated with saline or CST for 12 days. Plasma triglyceride (TG) (D), glycerol (E), non-esterified fatty acids (NEFA) (F), and leptin (G) in 28 week old WT and Chga-KO mice after treatment with saline or CST for 12 days. (H) Leptin in adipocyte culture media after treatment with saline or CST.
# Adult male (7 month old) WT (31.8±1.2 g) and Chga-KO (39.2±1.5 g) mice in the mixed genetic background (129SvJ×C57BL/6) were studied. Both genotypes were generated from the original founder carrying mixed genotype (50% 129SvJ, 50% C57BL/6) and were maintained by sibling mating. Animals were kept in a 12 hr dark/light cycle and fed standard chow ad libitum. Male C57BL/6 mice, 8 week old, were fed 60% high fat diet (D12492: Research Diets, Inc., New Brunswick) for 16 weeks before using for experiments. […]
# Mice were fasted for 12 hr prior to blood draw. […] Media from the explant cultures and mouse serum were analysed for glycerol and NEFA as a measure of lipolysis. […]
sequence,measurement,setting,value
SSMKLSFRARAYGFRGPGPQL [CST],"PLC activity, substance by itself",phospholipase C (PLC),mildly stimulates PLC
same,PLC activation by epinephrine,phospholipase C (PLC); epinephrine 10 μM 10 min,attenuated
same,PLC activation by phenylephrine,phospholipase C (PLC); phenylephrine 10 μM 10 min,attenuated
same,STAT3 phosphorylation,[1],CST stimulation of STAT3 phosphorylation
same,effect on the lipolytic effect of isoproterenol,"primary adipocytes; adipocytes, with isoproterenol 10 μM",potentiated
same,glycerol release (lipolysis),"primary adipocytes; primary adipocytes, substance alone",stimulated glycerol release
same,"Stat3 phosphorylation, CST alone",[2],lack of CST stimulation of Stat3 phosphorylation
same,leptin's ability to stimulate the phosphorylation of AMPK,[2]; CST plus leptin,restored
same,leptin's ability to stimulate the phosphorylation of Stat3,[2]; CST plus leptin,restored
same,"AMPK phosphorylation, CST alone",[2]; acute CST 100 nM 30 min,stimulated AMPK phosphorylation; also recorded: significantly stimulated pAMPK signaling
same,time plasma CST maintained at this level,[3],at least 4 hr
